Experimental data: US20210278391A1, “COMPOSITIONS AND METHODS FOR TREATING CARDIOVASCULAR AND METABOLIC CONDITIONS” (The Regents of the University of California, priority 2017, published 2021)
Entries after “also recorded” stand apart in the source; their conditions may differ.

Assays:
[1] = Plasma BCKA/BCAA concentrations in wild-type and PP2Cm-KO mice; assay type: in vivo, mouse; conditions: BT2 vs vehicle
Method: PP2Cm germ-line knockout (PP2Cm-KO) mice were generated as previously described (Lu et al. (2009), supra). PP2Cm KO mice were backcrossed for more than 8 generations into a C57BL/6 background. Wild type C57BL/6 mice and PP2Cm KO mice were housed at 22° C. with a 12-hour light, 12-hour dark cycle with free access to water and standard chow. Studies were performed with male mice. Human cohorts of dilated cardiomyopathy and controls were obtained from Columbia and Duke with Institutional Review Board approval. […]
BCKA Measurements in mouse Plasma: The method published by Olson et al. (2013), supra was followed with modification. […] The samples were re-suspended in 50:50 MeOH:5 mM NH4 acetate and analyzed by LC-MS/MS using a Sciex 3200 Q-Trap coupled to a Shimadzu Prominence LC. An Agilent C18 XDB 5 micron packing column (50×4.6 mm) was used for chromatography with the following conditions: Buffer A: 5 mM NH4 acetate, Buffer B: methanol, 0-2.0 min 50% B, 2.0-2.5 min gradient to 100% B, 2.5-3.5 min 100% B, 3.5-3.6 min gradient to 50% B, 3.6-4.6 min 50% B. The derivatized keto acids were detected with the mass spectrometer in positive MRM (multiple reaction monitoring) mode using the following transitions: KIC 203.1 to 161.1 (retention time: 2.91 min); KIV 189.145 to 119.2 (retention time 2.84 min); KMV 203.065 to 174.2 (retention time 2.99 min); [^13C] […]

[2] = system: pressure-overloaded heart; test: Transaortic constriction (TAC) pressure overload, BT2 started one week before TAC, echocardiography; assay type: in vivo, mouse; conditions: 4 weeks after TAC, BT2 40 mg/kg/d oral gavage
Method: (§1) PP2Cm germ-line knockout (PP2Cm-KO) mice were generated as previously described (Lu et al. (2009), supra). PP2Cm KO mice were backcrossed for more than 8 generations into a C57BL/6 background. Wild type C57BL/6 mice and PP2Cm KO mice were housed at 22° C. with a 12-hour light, 12-hour dark cycle with free access to water and standard chow. Studies were performed with male mice. Human cohorts of dilated cardiomyopathy and controls were obtained from Columbia and Duke with Institutional Review Board approval. All animal procedures were carried out in accordance with the guidelines and protocols approved by the University of California at Los Angeles Institutional Animal Care and Use Committee (IACUC). Transaortic constriction (TAC) and cardiac echocardiography were performed as reported earlier 17 on mice from different genotypes between 14 and 16 weeks of age. […] Measurements of BCKD activity in mouse cardiac tissue and plasma BCKA/BCAA concentrations were performed as previously described (Tso et al. (2014), supra).
In mice, transverse aortic constriction (TAC) was performed as described (Gao et al. (2016) J Clin Invest. 126:195-206) in anesthetized (pentobarbital 60 mg/kg, IP) and ventilated mice (age 14-16 weeks) to induce hypertrophy and heart failure. […]

[3] = system: BCKD subunit E1α; test: Immunoblot of phosphorylated BCKD subunit E1α in heart of BT2-treated mice; assay type: in vivo, mouse; conditions: wild-type mice, BT2 40 mg/kg/d oral gavage vs vehicle
Method: PP2Cm germ-line knockout (PP2Cm-KO) mice were generated as previously described (Lu et al. (2009), supra). PP2Cm KO mice were backcrossed for more than 8 generations into a C57BL/6 background. Wild type C57BL/6 mice and PP2Cm KO mice were housed at 22° C. with a 12-hour light, 12-hour dark cycle with free access to water and standard chow. Studies were performed with male mice. Human cohorts of dilated cardiomyopathy and controls were obtained from Columbia and Duke with Institutional Review Board approval. All animal procedures were carried out in accordance with the guidelines and protocols approved by the University of California at Los Angeles Institutional Animal Care and Use Committee (IACUC). Transaortic constriction (TAC) and cardiac echocardiography were performed as reported earlier 17 on mice from different genotypes between 14 and 16 weeks of age. […]
Proteins from heart tissue or cells were harvested in buffer (50 mM HEPES (pH7.4), 150 mM NaCl, 1% NP-40, 1 mM EDTA, 1 mM EGTA, 1 mM glycerophosphate, 2.5 mM sodium pyrophosphate, 1 mM Na3VO4, 20 mM NaF, 1 mM phenylmethylsulfonyl fluoride, 1 μg/mL of aprotinin, leupeptin, and pepstatin). […] Protein signals were detected using HRP conjugated secondary antibodies and enhanced chemiluminescence (ECL) western blotting detection regents (Pierce). […]

[4] = system: BCKD; test: BCKD activity in tissues of ob/ob mice treated with BT2; assay type: in vivo, mouse; conditions: BT2 40 mg/kg/day oral gavage 10 weeks
Method: Animals were euthanized using carbon dioxide asphyxiation followed by cervical dislocation and then dissected. Blood was harvested by cardiac puncture and centrifuged to isolate plasma which was stored at −80° C. Acidified citrate dextrose was used as an anticoagulant. Immediately after blood collection, heart, liver, kidneys, and both hind leg quadriceps muscles were removed and snap frozen in liquid nitrogen.
Assays for the BCKD activity were carried out as prescribed previously (Tso et al. (2014), supra). Briefly, frozen tissues were thawed and homogenized in a homogenizing buffer (30 mM KPi, pH 7.5, 3 mM EDTA, 5 mM DTT, 1 mM KIC, 3% fetal bovine serum, 5% Triton X-100, and 1 μM leupeptin). Samples were spun at 25,000×g and supernatants were collected. Diluted samples were placed in 24-well assay plates with assay buffer (30 mMKPi, pH7.5, 0.4 mM CoA, 3 mM NAD, 5% fetal bovine serum, 2 mM thiamine diphosphate, 2 mM MgCl2, and 65 μg of human E3). Keto [1-^14C] isovalerate substrate was added and assay plates were incubated at 37° C. for 30 min. 20% TCA solution was added to stop the reactions. Assay plates were incubated further at 37° C. for 45 min. ^14CO2 trapped on 2 M NaOH soaked filter wicks was counted in a liquid scintillation counter.

[5] = system: BCKD; test: BCKD activity in mouse cardiac tissue; assay type: in vivo; conditions: BT2 vs vehicle
Method: as §1

[6] = system: pressure-overloaded mouse heart; test: Metabolic gene expression (quantitative PCR) in pressure-overloaded mouse heart; assay type: in vivo
Text: Total RNA was extracted from heart tissues using Trizol Reagent (Invitrogen) according to the manufacturer's instructions. Total RNA was reverse-transcribed into the first-strand cDNA using ProtoScript® II Reverse Transcriptase (New England BioLabs). Then, cDNA transcripts were quantified by the CFX Real-Time PCR System (BioRad). 18sRNA were used for normalization except where indicated. PCR primer information is available upon request.

O=C(O)c1sc2cc(Cl)ccc2c1Cl [BT2, 3,6-dichlorobenzo[b]thiophene-2-carboxylic acid]
plasma BCAA level [1]: modest impact; also recorded: reduced | plasma BCKA level [1]: markedly reduced | chamber dilation [2]: reduced | left ventricular ejection fraction [2]: significantly preserved | phosphorylation of BCKD subunit E1α in heart [3]: significantly reduced | BCKD activity in different tissues including white adipose tissues [4]: significantly enhanced | enhancement of cardiac BCKD activity ([5]; PP2Cm-KO mice): ~9 fold | enhancement of cardiac BCKD activity ([5]; wild-type mice): ~7 fold | PDK4 mRNA level ([6]; BT2 treated mouse heart): trend of increase | gene expression related to glucose transport ([6]; BT2 treated mouse heart): unaffected | mRNA level of CD36 ([6]; BT2 treated mouse heart post-TAC): moderately increased | genes related to fatty acid β-oxidation (Acox1, Acadm) ([6]; BT2 treated mouse hearts): mild increase | mitochondrial DNA amount and PGC-1a mRNA levels ([6]; vehicle vs BT2, post-sham or post-TAC): unaffected
